# Results taken from patent US20230265151A1, “GIP/GLP1 CO-AGONIST COMPOUNDS” (priority 2020, published 2023).
# Like-named read-outs stand apart in the source and are kept apart here.
# Legend:
# hGCGR = biological target: T1, hGCGR (Homo sapiens, UniProt P47871); assay: Functional cAMP formation (HTRF) in HEK-293 clonal cells expressing hGCGR, 0.1% bovine casein, without or with 1.0% human serum albumin; format: cell-based; conditions: read-out: hGCGR EC50, nM (SEM, n)
# T1 construct: expressed in transfected cells
# T1 sequence (P47871 26-477): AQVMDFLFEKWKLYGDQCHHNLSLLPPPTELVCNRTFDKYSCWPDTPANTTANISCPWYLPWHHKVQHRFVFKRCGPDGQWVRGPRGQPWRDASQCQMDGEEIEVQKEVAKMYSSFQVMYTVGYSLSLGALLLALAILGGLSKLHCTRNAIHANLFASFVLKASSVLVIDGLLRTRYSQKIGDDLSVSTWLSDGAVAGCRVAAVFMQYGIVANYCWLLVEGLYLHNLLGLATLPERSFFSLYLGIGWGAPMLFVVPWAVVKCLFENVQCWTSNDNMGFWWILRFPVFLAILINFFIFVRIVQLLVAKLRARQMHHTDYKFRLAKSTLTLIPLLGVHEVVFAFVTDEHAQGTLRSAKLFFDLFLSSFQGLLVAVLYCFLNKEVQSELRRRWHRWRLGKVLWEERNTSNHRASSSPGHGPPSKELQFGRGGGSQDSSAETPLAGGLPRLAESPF
# Method in brief: (§1)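 Cells were stimulated with peptide for 30 min at 37° C, then lysed in buffer carrying cAMP-d2 and anti-cAMP Eu3+-cryptate for a competitive HTRF read after at least 60 min at room temperature. The 665/620 nm ratio was converted to nM cAMP against a standard curve.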
# [1] = biological target: T2, human GIP receptor (hGIPR) (Homo sapiens, UniProt P48546); assay: [125I]-GIP binding, SPA with membranes of CHO cells expressing hGIPR; conditions: human GIPR; geometric mean (SEM, n); read-out: Binding Affinity Ki, nM (SEM, n) hGIPR
# T2 construct: expressed in transfected cells; crude membranes
# T2 sequence (P48546 22-466): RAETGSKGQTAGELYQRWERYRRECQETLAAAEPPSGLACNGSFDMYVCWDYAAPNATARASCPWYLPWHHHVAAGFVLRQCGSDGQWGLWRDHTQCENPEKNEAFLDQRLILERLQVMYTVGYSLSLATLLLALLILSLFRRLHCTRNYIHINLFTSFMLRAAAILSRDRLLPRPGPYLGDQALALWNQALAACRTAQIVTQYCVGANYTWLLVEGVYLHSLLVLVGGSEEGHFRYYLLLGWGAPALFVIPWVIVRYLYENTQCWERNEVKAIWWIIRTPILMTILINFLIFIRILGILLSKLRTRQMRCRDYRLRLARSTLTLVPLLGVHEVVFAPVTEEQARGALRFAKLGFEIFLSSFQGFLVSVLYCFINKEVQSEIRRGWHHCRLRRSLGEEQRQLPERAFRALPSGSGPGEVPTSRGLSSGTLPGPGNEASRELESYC
# hGLP-1R = hGLP-1R (Homo sapiens, UniProt P43220); assay: Functional cAMP formation (HTRF) in HEK-293 clonal cells expressing hGLP-1R, 0.1% bovine casein, without or with 1.0% human serum albumin; format: cell-based; design: expressed in transfected cells; conditions: 37° C.; for EC50: cAMP, 0.1% bovine casein (no human serum albumin), geometric mean, read-out: hGLP-1R EC50, nM (SEM, n); for Emax: HEK293, cAMP, percent of maximal response to GLP-1(7-36)NH2, read-out: hGLP-1R Emax, % ± SEM
# Chain of hGLP-1R (P43220 24-463): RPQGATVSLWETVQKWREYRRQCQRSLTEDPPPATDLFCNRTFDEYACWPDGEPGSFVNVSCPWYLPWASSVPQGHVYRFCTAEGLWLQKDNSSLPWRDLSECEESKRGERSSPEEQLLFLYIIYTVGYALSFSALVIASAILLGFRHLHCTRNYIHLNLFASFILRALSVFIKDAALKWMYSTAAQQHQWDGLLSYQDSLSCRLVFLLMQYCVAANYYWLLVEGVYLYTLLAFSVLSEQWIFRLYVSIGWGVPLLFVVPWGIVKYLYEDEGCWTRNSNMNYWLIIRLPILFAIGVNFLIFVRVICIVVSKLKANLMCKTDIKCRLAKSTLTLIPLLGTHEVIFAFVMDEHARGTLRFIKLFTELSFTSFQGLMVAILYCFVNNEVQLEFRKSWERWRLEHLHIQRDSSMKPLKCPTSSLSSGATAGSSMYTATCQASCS
# Method in brief: as §1
# hGIPR = biological target: T3, hGIPR (Homo sapiens, UniProt P48546); assay: Functional cAMP formation (HTRF) in HEK-293 clonal cells expressing hGIPR, 0.1% bovine casein, without or with 1.0% human serum albumin; format: cell-based; conditions: for Emax: read-out: hGIPR Emax, % ± SEM; for EC50: geometric mean, read-out: hGIPR EC50, nM (SEM, n)
# T3 construct: expressed in transfected cells
# T3 sequence (P48546 22-466): T2 sequence (P48546 22-466)
# Method in brief: as §1
# [2] = biological target: T4, human GLP-1 receptor (hGLP-1R) (Homo sapiens, UniProt P43220); assay: [125I]-GLP-1 binding, SPA with membranes of HEK293 cells expressing hGLP-1R; conditions: human GLP-1R; geometric mean (SEM, n); read-out: Binding Affinity Ki, nM (SEM, n) hGLP-1R
# T4 construct: expressed in transfected cells; crude membranes
# T4 sequence (P43220 24-463): as above
# [3] = 0.1% bovine casein and 1.0% human serum albumin, 37° C., geometric mean
# [4] = cAMP, 37° C., 0.1% bovine casein (no human serum albumin), geometric mean
# [5] = HEK293, 0.1% bovine casein and 1.0% human serum albumin, 37° C., percent of maximal response to GIP(1-42)NH2
# [6] = HEK293, cAMP, 37° C., 0.1% bovine casein, percent of maximal response to GIP(1-42)NH2, arithmetic mean
# [7] = cAMP, 37° C., 0.1% bovine casein (no human serum albumin)
# [8] = cAMP, 37° C., 0.1% bovine casein and 1.0% human serum albumin, geometric mean (SEM, n)
# [9] = 0.1% bovine casein and 1.0% human serum albumin
# [10] = HEK293, cAMP, 37° C., 0.1% bovine casein and 1.0% human serum albumin, percent of maximal response to GIP(1-42)NH2
smiles,measurement,setting,value
CCCCCCCCCCCC(=O)N[C@@H](CCC(=O)NCCOCCOCC(=O)NCCOCCOCC(=O)NCCCC[C@H](NC(=O)[C@H](CCCN)NC(=O)[C@H](CC(=O)O)NC(=O)[C@H](CC(C)C)NC(=O)[C@](C)(CC(C)C)NC(=O)[C@@H](NC(=O)[C@H](CO)NC(=O)[C@H](Cc1ccncc1)NC(=O)[C@H](CC(=O)O)NC(=O)[C@H](CO)NC(=O)[C@@H](NC(=O)[C@](C)(Cc1ccccc1F)NC(=O)[C@@H](NC(=O)CNC(=O)[C@H](CCC(=O)O)NC(=O)C(C)(C)NC(=O)[C@@H](N)Cc1ccc(O)cc1)[C@@H](C)O)[C@@H](C)O)[C@@H](C)CC)C(=O)N[C@@H](C)C(=O)N[C@@H](CCC(N)=O)C(=O)NC(C)(C)C(=O)N[C@@H](CCCCNC(=O)COCCOCCNC(=O)COCCOCCNC(=O)CC[C@H](NC(=O)CCCCCCCCCCC)C(=O)O)C(=O)N[C@@H](Cc1ccccc1)C(=O)N[C@H](C(=O)N[C@H](CCC(=O)O)C(=O)N[C@@](C)(Cc1ccc(O)cc1)C(=O)N[C@@H](CC(C)C)C(=O)N[C@H](C(=O)N[C@@H](CCCN)C(=O)NCC(=O)NCC(=O)N1CCC[C@H]1C(=O)N[C@@H](CO)C(=O)N[C@@H](CO)C(=O)NCC(=O)N[C@@H](C)C(=O)N1CCC[C@H]1C(=O)N1CCC[C@H]1C(=O)N1CCC[C@H]1C(=O)N[C@@H](CO)C(N)=O)[C@@H](C)CC)[C@@H](C)CC)C(=O)O [Example 298],EC50,hGCGR; [3],> 9950 nM
same,EC50,hGCGR; [4],> 9950 nM
same,Ki,[1],0.0131 nM
same,EC50,hGLP-1R,0.19 nM
same,Emax,hGIPR; [5],95%
same,Emax,hGIPR; [6],97.4%
same,EC50,hGIPR; [7],0.0107 nM
same,Ki,[2],0.119 nM
CC[C@H](C)[C@H](NC(=O)[C@H](CC(C)C)NC(=O)[C@](C)(Cc1ccc(O)cc1)NC(=O)[C@H](CCCCNC(=O)COCCOCCNC(=O)COCCOCCNC(=O)CC[C@H](NC(=O)CCCCCCCCCCCCC(=O)O)C(=O)O)NC(=O)[C@@H](NC(=O)[C@H](Cc1ccccc1)NC(=O)[C@H](CCCN)NC(=O)C(C)(C)NC(=O)[C@H](CCC(N)=O)NC(=O)[C@H](C)NC(=O)[C@H](CCC(N)=O)NC(=O)[C@H](CCCN)NC(=O)[C@H](CC(=O)O)NC(=O)[C@H](CC(C)C)NC(=O)[C@](C)(CC(C)C)NC(=O)[C@@H](NC(=O)[C@H](CO)NC(=O)[C@H](CCc1ccc(O)cc1)NC(=O)[C@H](CC(=O)O)NC(=O)[C@H](CO)NC(=O)[C@@H](NC(=O)[C@](C)(Cc1ccccc1F)NC(=O)[C@@H](NC(=O)CNC(=O)[C@H](CCC(=O)O)NC(=O)C(C)(C)NC(=O)[C@@H](N)Cc1ccc(O)cc1)[C@@H](C)O)[C@@H](C)O)[C@@H](C)CC)[C@@H](C)CC)C(=O)N[C@@H](CCCCNC(=O)COCCOCCNC(=O)COCCOCCNC(=O)CC[C@H](NC(=O)CCCCCCCCCCCCC(=O)O)C(=O)O)C(=O)NCC(=O)NCC(=O)N1CCC[C@H]1C(=O)N[C@@H](CO)C(=O)N[C@@H](CO)C(=O)NCC(=O)N[C@@H](C)C(=O)N1CCC[C@H]1C(=O)N1CCC[C@H]1C(=O)N1CCC[C@H]1C(=O)N[C@@H](CO)C(N)=O [Example 491],EC50,hGCGR; [4],> 9950 nM
same,EC50,hGCGR; [8],> 9950 nM
same,Ki,[1],0.0301 nM
same,Emax,hGLP-1R; [9],105%
same,Emax,"hGLP-1R; 0.1% bovine casein, arithmetic mean",119%
same,EC50,hGLP-1R,0.148 nM
same,Emax,hGIPR; [10],87.5%
same,Emax,hGIPR; [6],100%
same,EC50,hGIPR; [7],0.0148 nM
same,Ki,[2],0.182 nM
CC[C@H](C)[C@H](NC(=O)[C@H](CC(C)C)NC(=O)[C@](C)(Cc1ccc(O)cc1)NC(=O)[C@@H](CCC(=O)O)NC(=O)[C@@H](NC(=O)[C@H](Cc1ccccc1)NC(=O)[C@H](CCC(=O)O)NC(=O)C(C)(C)NC(=O)[C@H](CCC(N)=O)NC(=O)[C@H](C)NC(=O)[C@H](CCCCNC(=O)COCCOCCNC(=O)COCCOCCNC(=O)CC[C@H](NC(=O)CCCCCCCCCCCCC(=O)O)C(=O)O)NC(=O)[C@H](CCCN)NC(=O)[C@H](CC(=O)O)NC(=O)[C@H](CC(C)C)NC(=O)[C@](C)(CC(C)C)NC(=O)[C@@H](NC(=O)C(C)(C)NC(=O)[C@H](Cc1ccc(O)cc1)NC(=O)[C@H](CC(=O)O)NC(=O)[C@H](CO)NC(=O)[C@@H](NC(=O)[C@](C)(Cc1ccccc1F)NC(=O)[C@@H](NC(=O)CNC(=O)[C@H](CCC(=O)O)NC(=O)C(C)(C)NC(=O)[C@@H](N)Cc1ccc(O)cc1)[C@@H](C)O)[C@@H](C)O)[C@@H](C)CC)[C@@H](C)CC)C(=O)N[C@@H](CCC(=O)O)C(=O)NCC(=O)NCC(=O)N[C@@H](CCCCNC(=O)COCCOCCNC(=O)COCCOCCNC(=O)CC[C@H](NC(=O)CCCCCCCCCCCCC(=O)O)C(=O)O)C(=O)N[C@@H](CO)C(=O)N[C@@H](CO)C(=O)NCC(=O)N[C@@H](C)C(=O)N1CCC[C@H]1C(=O)N1CCC[C@H]1C(=O)N1CCC[C@H]1C(=O)N[C@@H](CO)C(N)=O [Example 50],EC50,hGCGR; [3],> 9950 nM
same,EC50,"hGCGR; cAMP, incubated at 37° C., 0.1% bovine casein (no human serum albumin), geometric mean",> 9950 nM
same,Ki,[1],0.0296 nM
same,EC50,"hGIPR; 0.1% bovine casein and 1.0% human serum albumin, 37° C.",1.81 nM
same,Emax,hGIPR; [5],91.4 ± 4.2%
same,Emax,"hGIPR; HEK293, percent of maximal response to GIP(1-42)NH2, 37° C., 0.1% bovine casein, arithmetic mean",94.7 ± 1.77%
same,EC50,"hGIPR; cAMP, incubated at 37° C., 0.1% bovine casein (no human serum albumin)",0.0168 nM
same,Ki,[2],0.876 nM
CCCCCCCCCCCC(=O)N[C@@H](CCC(=O)NCCOCCOCC(=O)NCCOCCOCC(=O)NCCOCCOCC(=O)NCCCC[C@H](NC(=O)[C@H](CCCN)NC(=O)[C@H](CC(=O)O)NC(=O)[C@H](CC(C)C)NC(=O)[C@](C)(CC(C)C)NC(=O)[C@@H](NC(=O)C(C)(C)NC(=O)[C@H](CCCCNC(=O)COCCOCCNC(=O)COCCOCCNC(=O)COCCOCCNC(=O)CC[C@H](NC(=O)CCCCCCCCCCC)C(=O)O)NC(=O)[C@H](CC(=O)O)NC(=O)[C@H](CO)NC(=O)[C@@H](NC(=O)[C@](C)(Cc1ccccc1F)NC(=O)[C@@H](NC(=O)CNC(=O)[C@H](CCC(=O)O)NC(=O)C(C)(C)NC(=O)[C@@H](N)Cc1ccc(O)cc1)[C@@H](C)O)[C@@H](C)O)[C@@H](C)CC)C(=O)N[C@@H](C)C(=O)N[C@@H](CCC(N)=O)C(=O)NC(C)(C)C(=O)N[C@@H](CCC(=O)O)C(=O)N[C@@H](Cc1ccccc1)C(=O)N[C@H](C(=O)N[C@H](CCC(=O)O)C(=O)N[C@@](C)(Cc1ccc(O)cc1)C(=O)N[C@@H](CC(C)C)C(=O)N[C@H](C(=O)N[C@@H](CCC(=O)O)C(=O)NCC(=O)NCC(=O)N1CCC[C@H]1C(=O)N[C@@H](CO)C(=O)N[C@@H](CO)C(=O)NCC(=O)N[C@@H](C)C(=O)N1CCC[C@H]1C(=O)N1CCC[C@H]1C(=O)N1CCC[C@H]1C(=O)N[C@@H](CO)C(N)=O)[C@@H](C)CC)[C@@H](C)CC)C(=O)O [Example 421],EC50,hGCGR; [4],> 9950 nM
same,EC50,hGCGR; [8],> 9950 nM
same,Ki,[1],0.0245 nM
same,Emax,hGLP-1R; [9],105%
same,EC50,hGLP-1R,0.057 nM
same,Emax,hGIPR; [10],98%
same,Emax,hGIPR; [6],100%
same,EC50,hGIPR; [7],0.00618 nM
